The subject of assay [1] is ultrasound-induced currents in HEK cells. Briefly: Sodium substitution with NMDG on ultrasound-induced currents (patch clamp). The settings on record: N=5 cells. It is filed as cell-based. The source says: FIGS. 21A-21B are diagrams illustrating exemplary effects of sodium substitution with N-methyl-d-glucamine (NMDG) on ultrasound-induced currents. FIG. 21A illustrates representative examples of ultrasound-induced currents in control solution (Ringers), NMDG-Ringers (without sodium), and in Ringers washout (black, first stimulus; blue, second; red, third). As embodied herein, the cell was held at −90 mV. Ultrasound stimulation parameters were 3.1 MHz, 1.88 MPa, 25 μs, 1 stimulus, 30 s intervals. FIG. 21B illustrates NMDG substitution on ultrasound-induced currents (N=5 cells). As embodied herein, responses to three stimulus presentations per condition were averaged and normalized to the mean amplitude in the control condition for each cell. Cells were held at −90 mV. […] Additionally or alternatively, and as embodied herein, an extracellular cation, such as sodium, can be used to mediate US-induced inward currents. For example and not limitation, as embodied herein, cells were stimulated with US, first in Ringers solution (with sodium), then in an N-methyl-d-glucamine (NMDG)-based Ringer solution (without sodium). NMDG can be utilized at least in part because most mammalian cation channels can be impermeable to this large cation. As embodied herein, each cell was stimulated with US five times at −90 and +30 mV alternatively. The same stimuli were applied 10 minutes following NMDG replacement of sodium and 10 minutes following washout with Ringers (with sodium). […] The first three responses were used to calculate the mean amplitude of the responses in each condition. With reference to FIGS. 21A and 21B, in 4/5 cells, a reduction in US-activated currents with NMDG substitution was shown; however, in most cases, the effect was not reversible, as shown for example in FIG. 21B. This can be due at least in part because NMDG was not effectively washed out of chamber during the washout period (˜10 minutes). Additionally or alternatively, the lack of reversibility can indicate cellular rundown over the course of the stimulations.

Assay [2] concerns ultrasound-induced whole-cell currents in HEK cells. Briefly: Ruthenium red on ultrasound-induced whole-cell currents (patch clamp, Chamber B+laser). In kind it is cell-based. The settings on record: RR 10 μM. From the text:
FIGS. 20A-20D are diagrams illustrating ruthenium red (RR) on ultrasound (US)-induced currents. FIG. 20A illustrates representative examples of ultrasound-induced currents before (control), during (ruthenium red), and after (washout) RR treatment (black, first stimulus; blue, second; red, third). As embodied herein, cell was held at −90 mV. Ultrasound stimulation parameters were 3.1 MHz, 1.6 MPa, 25 μs, 1 stimulus, 30 s intervals. FIG. 20B illustrates additional representative examples of ultrasound-induced currents with RR treatment. As embodied herein, cell was held at −90 mV. Ultrasound stimulation parameters were the same as FIG. 20A, except the pressure was 1.27 MPa. FIG. 20C illustrates a summary of the drug effects of ruthenium red on ultrasound-induced currents (N=5 cells). As embodied herein, responses to three stimulus presentations per condition were averaged and normalized to the mean amplitude in the control condition for each cell. Experiments were done at −70 mV or −90 mV holding potential. FIG. 20D illustrates HEK cells grouped into two populations according to ultrasound activation thresholds and ruthenium red sensitivity.
For purpose of illustration and not limitation, as embodied herein, system 1700 can be used to measure the pharmacological profile of the ultrasound-induced currents in HEK cells. Ruthenium red (RR) can be used to block non-selective cation channels, including the mechanically activated ion channels Piezol, Piezo2, as well as some TRP channels (TRPA1, TRPV3, TRPV4, TRPV5, TRPV6). As embodied herein, RR (10 μM) can block ultrasound-induced whole-cell currents in HEK cells. For example and not limitation, as embodied herein, each cell was stimulated with ultrasound five times at both −90 mV (or −70 mV) and +30 mV (or +50 mV) alternatively. The same stimulation was applied 10 minutes after RR wash-in and 10 minutes after the RR washout, respectively. […]

“And” between values parts separate entries of the source, which are not always exact repeats. Equal entries are not always repeated. “Also recorded” adds a separate entry of the source.

As for `CNC[C@H](O)[C@@H](O)[C@H](O)[C@H](O)CO` [NMDG, N-methyl-d-glucamine], the “cells showing reduction in US-activated currents with NMDG substitution” value in assay [1] (NMDG-Ringers without sodium, 10 minutes after replacement, held at -90 mV) is “Four and 4/5”. In addition, the “cells showing increased response following NMDG replacement” value in assay [1] (NMDG-Ringers without sodium, held at -90 mV) was “one”. The “effect of replacement of sodium with NMDG on ultrasound-induced currents” value in assay [1] (un-normalized data, P=0.16 paired t test, -90 mV) was “did not show significant effect”.

For `N.N.N.N.N.N.N.N.N.N.N.N.N.N.[Cl-].[Cl-].[Cl-].[Cl-].[Cl-].[Cl-].[O-2].[O-2].[Ru+3].[Ru+3].[Ru+4]` [RR, Ruthenium red], the “effect on ultrasound-induced whole-cell currents” value in assay [2] (10 minutes after wash-in, held at -90 mV or -70 mV, N=5 cells) is listed as “can block; also recorded: varying effects”. Moreover, in assay [2] (N=5 cells analysed), the “number of cells showing enhanced US-induced currents in the presence of RR” value is given as “two” and the “number of cells showing reduced US-evoked currents in the presence of RR” value was “Three”.

Values taken from patent US20200023206A1, “SYSTEMS AND METHODS FOR ULTRASOUND MODULATION OF NEURONS” (THE TRUSTEES OF COLUMBIA UNIVERSITY IN THE CITY OF NEW YORK, priority 2016, published 2020).
